{
  "source": "patent US7915050B2",
  "about": "“Regulatory genes for plant differentiation and growth, and use of the same” (National University Corporation Nagoya University, priority 2005, dated 2011)",
  "key": {"GID1": {"target": "T1, GID1 (Oryza sativa subsp. japonica, UniProt Q6L545)", "T1 construct": "GST (tag of vector pGEX-4T) (N); made in house", "T1 sequence (Q6L545 whole entry)": "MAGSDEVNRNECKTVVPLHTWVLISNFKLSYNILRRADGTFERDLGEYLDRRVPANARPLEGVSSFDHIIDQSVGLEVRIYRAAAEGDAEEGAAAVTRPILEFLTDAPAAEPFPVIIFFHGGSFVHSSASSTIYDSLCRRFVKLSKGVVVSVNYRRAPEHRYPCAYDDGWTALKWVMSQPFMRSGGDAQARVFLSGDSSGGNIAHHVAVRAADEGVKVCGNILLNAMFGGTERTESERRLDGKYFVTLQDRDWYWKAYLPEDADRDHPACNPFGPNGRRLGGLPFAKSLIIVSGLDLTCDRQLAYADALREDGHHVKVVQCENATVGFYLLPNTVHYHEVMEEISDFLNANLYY", "assay": "Competition of various GAs in the binding of the 3H-GA4 derivative to GID1 protein", "set-up": "species or system rice", "experimental": "In the gibberellin-binding assay, [1,2,16,17-^3H4]16,17-dihydro-GA4 was used as a labeled GA4. In vitro GA-binding assays were carried out using previous methods with some modifications (Nakajima, M. et al., Biochem. Biophys. Res. Comm. 241, 782-786 (1997)). The purified recombinant GID1 protein (400 pmol) was dissolved in 300 μl of binding buffer [20 mM Tris-HCl (pH 7.6), 5 mM 2-mercaptoethanol, and 0.1 M NaCl], and incubated with 100 μl of ^3H4-16,17-dihydroGA4 (6 pmol) for two hours at 25° C., either in the absence of non-labeled GA4 (total binding) or in the presence of 833-fold excess non-labeled GA4 (total non-specific binding). Then, 0.1 ml of the reaction mixture was loaded onto a NAP-5 column (Amersham Biosciences, Piscataway, N.J.). The eluate of the binding buffer (0.6 ml) was discarded, the subsequent eluate (0.2 ml) was collected, and the radioactivity was measured. The specific binding activity, reflecting the number of displaceable GA binding sites, was calculated by subtracting the amount of nonspecific binding from the amount of total binding. The same as above can also be carried out for other GAs.\nThus, it was postulated that, like GID2, GID1 is involved in the degradation of SLR1, or that GID1 functions upstream of SLR1 in GA signaling. […] Based on this phenotypic characteristic of gid1, it was predicted that GID1 was involved in GA perception. To verify this possibility, the interactions between GID1 and radioisotope-labeled GA was directly examined using non-equilibrium gel filtration (Nakajima, M. et al., Biochem. Biophys. Res. Comm. 241, 782-786 (1997)). […] Next, ligand specificity of GID1 was tested by using competition between the tritiated GA4 derivative and various GAs. The concentration of each GA that is required for a 50% inhibition (IC50) of the binding of the tritiated GA4 derivative to GID1 is shown in Table 1. […] The IC50 value for each of these GAs was well consistent with their physiological activity."}, "[1]": {"target": "T2, AtGID1c in the presence of RGA (Arabidopsis thaliana, UniProt Q940G6)", "T2 construct": "made in house; host or cells: E. coli (stated for AtGID1)", "T2 sequence (Q940G6 1-344)": "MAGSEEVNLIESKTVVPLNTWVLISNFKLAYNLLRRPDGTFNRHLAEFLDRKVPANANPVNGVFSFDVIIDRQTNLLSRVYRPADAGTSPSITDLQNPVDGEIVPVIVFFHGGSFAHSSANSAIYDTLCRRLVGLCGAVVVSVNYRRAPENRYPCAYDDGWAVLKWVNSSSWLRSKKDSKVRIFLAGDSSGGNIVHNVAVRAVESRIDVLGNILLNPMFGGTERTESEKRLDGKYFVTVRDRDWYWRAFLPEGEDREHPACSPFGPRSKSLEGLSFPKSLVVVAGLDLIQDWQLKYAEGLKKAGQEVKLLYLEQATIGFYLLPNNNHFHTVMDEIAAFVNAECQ", "T2 sequence (Q9SLH3 1-587 partner)": "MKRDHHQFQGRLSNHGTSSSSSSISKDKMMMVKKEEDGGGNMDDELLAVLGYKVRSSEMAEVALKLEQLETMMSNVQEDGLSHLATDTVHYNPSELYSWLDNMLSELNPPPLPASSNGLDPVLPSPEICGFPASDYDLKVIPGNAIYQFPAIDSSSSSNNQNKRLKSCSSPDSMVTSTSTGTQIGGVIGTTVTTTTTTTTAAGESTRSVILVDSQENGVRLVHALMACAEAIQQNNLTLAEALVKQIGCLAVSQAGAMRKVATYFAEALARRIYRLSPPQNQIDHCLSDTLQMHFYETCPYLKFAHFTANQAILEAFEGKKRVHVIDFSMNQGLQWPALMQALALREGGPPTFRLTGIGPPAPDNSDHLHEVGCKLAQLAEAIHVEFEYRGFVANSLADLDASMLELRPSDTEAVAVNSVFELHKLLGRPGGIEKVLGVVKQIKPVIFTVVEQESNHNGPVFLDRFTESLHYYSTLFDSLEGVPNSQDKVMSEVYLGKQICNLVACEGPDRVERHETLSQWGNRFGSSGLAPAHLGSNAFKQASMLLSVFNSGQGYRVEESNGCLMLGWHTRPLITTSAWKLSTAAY", "assay": "Scatchard analysis of AtGID1c-GA binding in the presence of RGA", "experimental": "Panel A) depicts AtGID1-AtDELLA interaction in the presence of GA in two types of yeast hybrid (Y2H) assays. Each AtGID1 was used as a bait while AtDELLA was a prey. GA4 (10^−5 M) was added to the medium. The bars indicates β-galactosidase activity when o-nitrophenol-β-D-galactopyranoside was used as a substrate (Assay B). The growth of each transformant in the defined medium for 2 days (Assay A) is shown beneath of each bar graph. The experiment was carried out in quadruplicate. The SD value shown in the figure was determined from three measurements. Panel B) depicts the dose response in AtGID1-RGA interaction in Assay B of Y2H. GA4 (10^−5 to 10^−9 M) was added to the medium. The experiment was conducted in […]. The SD value shown in the figure was determined from three measurements. Panel C) depicts the results of an evaluation of the in vitro GA-binding potency of AtGID1 using AtDELLA. […] GAI (G) or RGA (R) was added, and then the GA-binding activity in each reaction mixture was measured according to the standard method. […] The SD value was determined from three measurements. […]\nNext, whether AtDELLAs exert some kind of influence on the GA-binding activity of AtGID1s was examined in vitro. After labeled 16,17-dihydro-GA4 and AtGID1s were combined, AtDELLAs were added to the solutions, and the GA-binding activity was measured. […]"}},
  "data": [
    {"smiles": "CC1C[C@]23C[C@H]1CCC2[C@]12CC[C@H](O)[C@](C)(C(=O)O1)[C@H]2[C@@H]3C(=O)O", "note": "(stereo partly shown) [H2-GA4, 16,17-dihydro-GA4]", "values": [
      {"measurement": "affinity of recombinant GID1 for the GA (in words)", "setting": "GID1", "value": "high affinity"},
      {"measurement": "IC50", "setting": "GID1; competition with tritiated GA4 derivative for binding to recombinant GID1, read-out: IC50 (concentration required for 50% inhibition)", "value": 1000, "unit": "nM"},
      {"measurement": "Rel % (relative value)", "setting": "GID1; relative competition, GA4 given as 100", "value": "(20) %"},
      {"measurement": "Kd", "setting": "[1]", "value": 12, "unit": "nM"}
    ]}
  ]
}
